Test results published in patent US10166271B2, “Methods for promoting hair growth” (THE REGENTS OF THE UNIVERSITY OF CALIFORNIA, priority 2006, dated 2019).
Values joined by “and” are separate entries in the source; they are usually repeats but may differ in a detail not shown here. Equal values may be shown once.

Assays:
CRF1/CRF2 receptor = CRF1/CRF2 receptor antagonist; stated without test; cited from earlier work
young CRF-OE mice = experiment: Prevention of hair loss in young (not-yet-alopecic) CRF-OE mice, sc injection (Example 4); type: in vivo; conditions: for Skin pigmentation (Pg) score / Ventral Abdomen Hair Score (VAb) / Back Hair Score (BK): sc 5 μg/mouse/day x 5 days, individual mice and group mean; for Skin pigmentation (Pg) score / Ventral Abdomen Hair Score (VAb) / Induction of skin pigmentation / Hair loss / development of alopecia / Back Hair Score (BK): young CRF-OE mice; for Induction of skin pigmentation: first week post injection; for Hair loss / development of alopecia: week 4 to week 16 post treatment
Procedure: Alopecia in this strain fully develops in adulthood at approximately 12 weeks and older.
Young CRF-OE mice (5-6 weeks old) were treated with astressin B, astressin 2B, or vehicle (saline). Treatments were a single, daily subcutaneous injection (0.1 ml volume) of vehicle alone or 5 μg peptide per mouse for five consecutive days. Pigmentation and hair coverage scores were determined pretreatment and 1, 4, 8 and 16 weeks after the last treatment. Hair growth and pigmentation were determined as described in Examples 1 and 2.

[1] = tested on: hair follicles of CRF-OE mice; experiment: Histology of dorsal skin hair follicles (H/E) in CRF-OE mice (Example 3); type: in vivo; conditions: for Hair follicle morphology: H/E-stained skin sections of adult CRF-OE mice; for Skin thickness or hair follicle numbers versus wild type mice: adult CRF-OE mice
Text: Wild-type (C57BL/6) mice, saline-treated CRF-OE mice, CRF-OE mice treated with astressin B or astressin 2B as described in Example 1 (sc injection), and adult CRF-OE mice treated with astressin 2B as described in Example 2 (ip injection), were euthanized, Male mice were used in each case. Whole dorsal skin pieces were harvested for histology four weeks after the final sc injection of the respective peptides or two weeks after ip astressin B or saline injection.
Skin samples were fixed in 4% paraformaldehyde. Paraffin-embedded sections were processed for staining of hematoxylin/eosin and examined by light microscopy. The thickness of the epidermis plus dermis and depth of hair follicles were measured and the number of hair follicles was counted per unit (a field obtained with 10× objective) in a total of 5 units per section.

CRF-OE mice = experiment: Hair growth and skin pigmentation after sc injection in adult alopecic CRF-OE mice (Example 1); type: in vivo; conditions: for Back Hair Growth Score (BK) / Skin pigmentation (Pg) score: score 0-10, individual mice
Text: Adult (6-9 month old) male and female C57BL/6 mice that overexpress a rat CRF transgene (Stenzel-Poore et al., Endocrinol., 130:3378-3386, 1992) were used in this Example. […] Moreover, these animals display physical changes, such as excess abdominal fat accumulation, muscle atrophy, thin skin, and alopecia on the back and ventral abdomen area. Alopecia in these animals develops after about 7-8 weeks of age and is fully developed at about 4 months of age. This phenotype, i.e., hair loss in adulthood, is similar to that observed in some forms of human alopecia (e.g., the age-dependent balding of adult, human males (and females)).
CRF-OE mice were housed in standard plastic cages in a controlled environment (temperature=21-23° C.; humidity=30-35%; 12-hour light cycle with lights on 06:00 AM) and fed a standard rodent diet (PROLAB™ RMH 2500). Experiments were conducted in accordance with institutional guidelines.
Eight (8) male and 9 female CRF-OE mice were injected subcutaneously with 5 μg/mouse astressin B or astressin 2B, in 0.1 ml sterile water, once per day for 5 consecutive days. Similar doses of astressin B and astressin 2B previously were shown, respectively, to inhibit elevated ACTH release in adrenalectomized rats for over 12 hours (Rivier et al., J. Med. Chem., 42:3175-3182, 1999) and delay gastric emptying for over 6 hours (Rivier et al., J. Med. Chem., 45:4737-4747, 2002). […] CRF-OE mice similarly injected with saline alone were used as negative controls. Astressin B and astressin 2B peptides were synthesized as previously described (Rivier et al., J. Med. Chem., 45:4737-4747, 2002; Gulyas et al., Proc. Natl. Acad. Sci. USA, 92:10575-10579, 1995) and were diluted with sterile water immediately preceding each injection.
It appeared that hair growth (if any) typically was completed by 4 weeks post-treatment.
Hair growth in CRF-OE mice was assessed using the hair growth scale developed by Vegesna et al. […], 2002) modified to account for phenotypic differences between CRF-OE mice. Scores were made visually as well as using photographs of each mouse at a weekly interval. The degree of alopecia varied between individual CRF-OE mice; thus, the percent difference between the amount of hair present in the test area (described below) before and 4 weeks after treatment was converted to a score of 0-10. A zero score corresponded to a no change in the amount of hair in the test area and a score of 10 corresponded to full hair growth in the entire test area. The scale for monitoring hair growth in CRF-OE mice is more particularly described in Table 2.
The area was defined anteriorly by a line joining the front of the ears; posteriorly by a line joining the pelvic girdles; and laterally, between the lines projecting caudally from each ear root.
Pigmentation of the skin (also referred to as skin color) in the test region was also measured because, in C57BL/6 mice, the skin darkens at the onset of hair growth. A pigmentation score from 0-10 was given to each mouse with a score of 0 corresponding to bright pink skin color/pigment in the entire test region, a score of 1-5 corresponding to increasing intensity of a pale greyish color/pigment of skin in the test region, a score of 6-9 corresponding to increasing but non-confluent darker color/pigment of skin in the test region, and a score of 10 corresponding to black pigmentation of the entire test region. Pigmentation was measured one week after the fifth and final injection because changes (if any) in pigmentation are substantially complete by that time.

[2] = sc 5 μg/mouse/day x 5 days, adult CRF-OE mice, Week 0 (before injection), female mice
[3] = sc 5 μg/mouse/day x 5 days, adult CRF-OE mice, Week 0 (before injection), male mice
[4] = sc 5 μg/mouse/day x 5 days, adult CRF-OE mice, Week 1 after last injection, female mice
[5] = sc 5 μg/mouse/day x 5 days, adult CRF-OE mice, Week 1 after last injection, male mice
[6] = sc 5 μg/mouse/day x 5 days, adult CRF-OE mice, Week 0 (before injection)
[7] = sc 5 μg/mouse/day x 5 days, adult CRF-OE mice, Week 1 after last injection

(cyclo 30-33)[DPhe12, Nle21,38, Cml27,40, Glu30, Lys33]Ac-h/rCRF9-41 [Astressin B]
Duration of action (long acting) (CRF1/CRF2 receptor): ≥ 24 h
Mice with dark pigmentation of the skin (young CRF-OE mice; 1 week after the last injection, fraction of mice): 5/5
Mice with little or less hair loss (as compared to vehicle-treated subjects) (young CRF-OE mice; by 4, 8 and 16 weeks after the last injection, fraction of mice): 4/5
Skin pigmentation (Pg) score (young CRF-OE mice; Before (Week 0)): 0
Ventral Abdomen Hair Score (VAb) (young CRF-OE mice; Week 4): 10
Induction of skin pigmentation (young CRF-OE mice): induced skin pigmentation within one week after the final injection
Hair loss / development of alopecia (young CRF-OE mice): remained protected from developing full alopecia
Hair loss / development of alopecia (young CRF-OE mice; listed as astressin 1): started to lose hair gradually 2 months after treatment
Hair follicle morphology [1]: more developed and defined in structure
Skin thickness or hair follicle numbers versus wild type mice [1]: no significant differences
Average depth of hair follicles ([1]; treated adult CRF-OE mice (FIG. 3B, 4 weeks after last sc treatment), not significantly different from wild type): 0.42±0.05 mm
Mice responding with increased pigmentation and hair growth (CRF-OE mice; female CRF-OE mice, 8 out of 9, sc): 89%
Mice responding with increased pigmentation and hair growth (CRF-OE mice; male CRF-OE mice, 4 out of 4, sc): 100%
Back Hair Growth Score (BK) (CRF-OE mice; [2]): 0 (5×) and 1
Skin pigmentation (Pg) score (CRF-OE mice; [2]): 0
Back Hair Growth Score (BK) (CRF-OE mice; [3]): 0 (2×) and 1 (2×)
Skin pigmentation (Pg) score (CRF-OE mice; [3]): 0
Back Hair Growth Score (BK) (CRF-OE mice; [4]): 2 (5×) and 1
Skin pigmentation (Pg) score (CRF-OE mice; [4]): 2 and 8 (2×) and 10 and 0 and 7
Back Hair Growth Score (BK) (CRF-OE mice; [5]): 2 (2×) and 1 (2×)
Skin pigmentation (Pg) score (CRF-OE mice; [5]): 10 (2×) and 7 and 4
Back Hair Growth Score (BK) (CRF-OE mice; sc 5 μg/mouse/day x 5 days, adult CRF-OE mice, Week 4 after last injection, female mice): 2 and 8 (2×) and 9 (2×) and 0
Back Hair Growth Score (BK) (CRF-OE mice; sc 5 μg/mouse/day x 5 days, adult CRF-OE mice, Week 4 after last injection, male mice): 8 and 9 and 7 and 6
Hair growth maintained post treatment (CRF-OE mice; sc, adult CRF-OE mice): at least 4 weeks
Onset of hair growth (CRF-OE mice; sc, adult CRF-OE mice, FIG. 1B): as early as one week after the last injection
Hair growth coverage (CRF-OE mice; sc, range over treated adult CRF-OE mice): 20-90%
Hair growth substantially maintained without subsequent treatment (CRF-OE mice; two adult CRF-OE mice observed for an extended period, post treatment): up to 4 months

cyclo(31-34)[DPhe11, His12, CαMeLeu13,39, Nle17, Glu31, Lys34]Ac-Sau(8-40) [Astressin 2B, reference compound]
Back Hair Score (BK) (young CRF-OE mice; Before (Week 0)): 9
Skin pigmentation (Pg) score (young CRF-OE mice; Before (Week 0)): 0
Back Hair Score (BK) (young CRF-OE mice; Week 1): 9
Ventral Abdomen Hair Score (VAb) (young CRF-OE mice; Week 16): 2.5
Induction of skin pigmentation (young CRF-OE mice): moderate induction of skin pigments
Hair loss / development of alopecia (young CRF-OE mice): lost hair and developed full alopecia
Hair follicle morphology [1]: did not have the normal morphology found in wild-type mice
Skin thickness or hair follicle numbers versus wild type mice [1]: no significant differences
Mice that grew significant amounts of hair (CRF-OE mice; sc 5 μg/mouse/day x 5 days, adult CRF-OE mice): 0%
Back Hair Growth Score (BK) (CRF-OE mice; [6]): 0 (2×) and 5
Skin pigmentation (Pg) score (CRF-OE mice; [6]): 0
Back Hair Growth Score (BK) (CRF-OE mice; [7]): 0
Skin pigmentation (Pg) score (CRF-OE mice; [7]): 1 and 2 (2×)
Back Hair Growth Score (BK) (CRF-OE mice; sc 5 μg/mouse/day x 5 days, adult CRF-OE mice, Week 4 after last injection): 0
